In brackets after ≈: the same amount, converted by molar mass.
Experiments:
Format in all cases: functional
[1] = system: Candida albicans; assay: Antifungal activity against Candida albicans ATCC 90023 assessed as inhibition of fungal growth incubated for 24 hrs by CLSI based microbroth dilution method
[2] = system: Candida parapsilosis; assay: Antifungal activity against Candida parapsilosis ATCC 22019 assessed as inhibition of fungal growth incubated for 24 hrs by CLSI based microbroth dilution method; settings: Lodderomyces parapsilosis
[3] = system: Aspergillus fumigatus; assay: Antifungal activity against Aspergillus fumigatus assessed as inhibition of fungal growth incubated for 24 hrs by CLSI based microbroth dilution method
[4] = system: Candida tropicalis; assay: Antifungal activity against Candida tropicalis assessed as inhibition of fungal growth incubated for 24 hrs by CLSI based microbroth dilution method
[5] = system: Candida albicans; assay: Antifungal activity against Candida albicans assessed as inhibition of fungal growth incubated for 24 hrs by CLSI based microbroth dilution method

SMILES: C#CCN1C(=O)c2cccc3c(N/N=C(\C)Cn4c([N+](=O)[O-])cnc4C)ccc(c23)C1=O
- MIC [1]: 1180 µM (≈ 510 µg/mL)
- MIC [2]: 1180 µM (≈ 510 µg/mL)
- MIC [3]: 296 µM (≈ 127 µg/mL)
- MIC [4]: 1180 µM (≈ 510 µg/mL)
- MIC [5]: 1180 µM (≈ 510 µg/mL)

SMILES: O=C1c2cccc3c(N/N=C/c4ccc([N+](=O)[O-])s4)ccc(c23)C(=O)N1CCO
- MIC [1]: 78 µM (≈ 32 µg/mL)
- MIC [2]: 78 µM (≈ 32 µg/mL)
- MIC [3]: 19 µM (≈ 7.8 µg/mL)
- MIC [4]: 156 µM (≈ 64 µg/mL)
- MIC [5]: 39 µM (≈ 16 µg/mL)

SMILES: O=C1c2cccc3c(N/N=C/c4cncs4)ccc(c23)C(=O)N1CCO
- MIC [1]: 44 µM (≈ 16.1 µg/mL)
- MIC [2]: 22 µM (≈ 8.06 µg/mL)
- MIC [3]: 175 µM (≈ 64.1 µg/mL)
- MIC [4]: 87 µM (≈ 31.9 µg/mL)
- MIC [5]: 350 µM (≈ 128 µg/mL)

SMILES: O=C1c2cccc3c(N/N=C/C=C/c4ccc([N+](=O)[O-])o4)ccc(c23)C(=O)N1CCO
- MIC [1]: 38 µM (≈ 16 µg/mL)
- MIC [2]: 152 µM (≈ 63.9 µg/mL)
- MIC [3]: 76 µM (≈ 31.9 µg/mL)
- MIC [4]: 38 µM (≈ 16 µg/mL)
- MIC [5]: 9 µM (≈ 3.78 µg/mL)

SMILES: O=C1c2cccc3c(N/N=C/c4ccc(O)c([N+](=O)[O-])c4)ccc(c23)C(=O)N1CCO
- MIC [1]: 10 µM (≈ 4.2 µg/mL)
- MIC [2]: 5 µM (≈ 2.1 µg/mL)
- MIC [3]: 2 µM (≈ 0.841 µg/mL)
- MIC [4]: 5 µM (≈ 2.1 µg/mL)
- MIC [5]: 5 µM (≈ 2.1 µg/mL)

SMILES: CCCN1C(=O)c2cccc3c(N/N=C(\C)Cn4c([N+](=O)[O-])cnc4C)ccc(c23)C1=O
- MIC [1]: 1180 µM (≈ 512 µg/mL)
- MIC [2]: 1180 µM (≈ 512 µg/mL)
- MIC [3]: 1180 µM (≈ 512 µg/mL)
- MIC [4]: 1180 µM (≈ 512 µg/mL)
- MIC [5]: 1180 µM (≈ 512 µg/mL)

SMILES: CCCCc1nc(Cl)c(/C=N/Nc2ccc3c4c(cccc24)C(=O)N(CCO)C3=O)n1CCC
- MIC [1]: 67 µM (≈ 32.3 µg/mL)
- MIC [2]: 266 µM (≈ 128 µg/mL)
- MIC [3]: 33 µM (≈ 15.9 µg/mL)
- MIC [4]: 67 µM (≈ 32.3 µg/mL)
- MIC [5]: 133 µM (≈ 64.1 µg/mL)

SMILES: CCCCc1nc(Cl)c(/C=N/Nc2ccc3c4c(cccc24)C(=O)N(CCO)C3=O)n1C
- MIC [1]: 71 µM (≈ 32.2 µg/mL)
- MIC [2]: 565 µM (≈ 256 µg/mL)
- MIC [3]: 18 µM (≈ 8.17 µg/mL)
- MIC [4]: 141 µM (≈ 64 µg/mL)
- MIC [5]: 71 µM (≈ 32.2 µg/mL)

SMILES: O=C1c2cccc3c(N/N=C/c4cc[nH]c4)ccc(c23)C(=O)N1CCO
- MIC [1]: 367 µM (≈ 128 µg/mL)
- MIC [2]: 46 µM (≈ 16 µg/mL)
- MIC [3]: 92 µM (≈ 32 µg/mL)
- MIC [4]: 23 µM (≈ 8.01 µg/mL)
- MIC [5]: 367 µM (≈ 128 µg/mL)

SMILES: CCN1C(=O)c2cccc3c(N/N=C/c4ccc([N+](=O)[O-])o4)ccc(c23)C1=O
- MIC [1]: 84 µM (≈ 31.8 µg/mL)
- MIC [2]: 168 µM (≈ 63.6 µg/mL)
- MIC [3]: 338 µM (≈ 128 µg/mL)
- MIC [4]: 84 µM (≈ 31.8 µg/mL)
- MIC [5]: 42 µM (≈ 15.9 µg/mL)

SMILES: CCCCN1C(=O)c2cccc3c(N/N=C(\C)Cn4c([N+](=O)[O-])cnc4C)ccc(c23)C1=O
- MIC [1]: 1140 µM (≈ 512 µg/mL)
- MIC [2]: 1140 µM (≈ 512 µg/mL)
- MIC [3]: 1140 µM (≈ 512 µg/mL)
- MIC [4]: 1140 µM (≈ 512 µg/mL)
- MIC [5]: 1140 µM (≈ 512 µg/mL)

SMILES: O=C1c2cccc3c(N/N=C/c4ncc[nH]4)ccc(c23)C(=O)N1CCO
- MIC [1]: 183 µM (≈ 63.9 µg/mL)
- MIC [2]: 6 µM (≈ 2.1 µg/mL)
- MIC [3]: 183 µM (≈ 63.9 µg/mL)
- MIC [4]: 92 µM (≈ 32.1 µg/mL)
- MIC [5]: 367 µM (≈ 128 µg/mL)

SMILES: O=C1c2cccc3c(N/N=C/c4ccco4)ccc(c23)C(=O)N1CCO
- MIC [1]: 175 µM (≈ 61.1 µg/mL)
- MIC [2]: 351 µM (≈ 123 µg/mL)
- MIC [3]: 87 µM (≈ 30.4 µg/mL)
- MIC [4]: 87 µM (≈ 30.4 µg/mL)
- MIC [5]: 87 µM (≈ 30.4 µg/mL)

SMILES: CCCCc1nc(Cl)c(/C=N/Nc2ccc3c4c(cccc24)C(=O)N(CCO)C3=O)n1CCO
- MIC [1]: 17 µM (≈ 8.23 µg/mL)
- MIC [2]: 33 µM (≈ 16 µg/mL)
- MIC [3]: 66 µM (≈ 31.9 µg/mL)
- MIC [4]: 17 µM (≈ 8.23 µg/mL)
- MIC [5]: 33 µM (≈ 16 µg/mL)

SMILES: C=CCN1C(=O)c2cccc3c(N/N=C(\C)Cn4c([N+](=O)[O-])cnc4C)ccc(c23)C1=O
- MIC [1]: 1190 µM (≈ 515 µg/mL)
- MIC [2]: 1190 µM (≈ 515 µg/mL)
- MIC [3]: 595 µM (≈ 257 µg/mL)
- MIC [4]: 1190 µM (≈ 515 µg/mL)
- MIC [5]: 1190 µM (≈ 515 µg/mL)

SMILES: NNc1ccc2c3c(cccc13)C(=O)N(CCO)C2=O
- MIC [1]: 118 µM (≈ 32 µg/mL)
- MIC [2]: 236 µM (≈ 64 µg/mL)
- MIC [3]: 118 µM (≈ 32 µg/mL)
- MIC [4]: 118 µM (≈ 32 µg/mL)
- MIC [5]: 118 µM (≈ 32 µg/mL)

SMILES: O=C1c2cccc3c(N/N=C/c4c[nH]cn4)ccc(c23)C(=O)N1CCO
- MIC [1]: 92 µM (≈ 32.1 µg/mL)
- MIC [2]: 23 µM (≈ 8.04 µg/mL)
- MIC [3]: 183 µM (≈ 63.9 µg/mL)
- MIC [4]: 46 µM (≈ 16.1 µg/mL)
- MIC [5]: 183 µM (≈ 63.9 µg/mL)

SMILES: CCCCCCCn1c(CCCC)nc(Cl)c1/C=N/Nc1ccc2c3c(cccc13)C(=O)N(CCO)C2=O
- MIC [1]: 119 µM (≈ 64 µg/mL)
- MIC [2]: 238 µM (≈ 128 µg/mL)
- MIC [3]: 119 µM (≈ 64 µg/mL)
- MIC [4]: 60 µM (≈ 32.3 µg/mL)
- MIC [5]: 119 µM (≈ 64 µg/mL)

SMILES: COc1ccc(N2C(=O)c3cccc4c(N/N=C(\C)Cn5c([N+](=O)[O-])cnc5C)ccc(c34)C2=O)cc1
- MIC [1]: 1030 µM (≈ 512 µg/mL)
- MIC [2]: 257 µM (≈ 128 µg/mL)
- MIC [3]: 1030 µM (≈ 512 µg/mL)
- MIC [4]: 514 µM (≈ 256 µg/mL)
- MIC [5]: 514 µM (≈ 256 µg/mL)

SMILES: CN1C(=O)c2cccc3c(N/N=C/c4ccc([N+](=O)[O-])o4)ccc(c23)C1=O
- MIC [1]: 175 µM (≈ 63.8 µg/mL)
- MIC [2]: 350 µM (≈ 128 µg/mL)
- MIC [3]: 87 µM (≈ 31.7 µg/mL)
- MIC [4]: 87 µM (≈ 31.7 µg/mL)
- MIC [5]: 87 µM (≈ 31.7 µg/mL)

SMILES: CCCCCCCCN1C(=O)c2cccc3c(N/N=C(\C)Cn4c([N+](=O)[O-])cnc4C)ccc(c23)C1=O
- MIC [1]: 1020 µM (≈ 512 µg/mL)
- MIC [2]: 1020 µM (≈ 512 µg/mL)
- MIC [3]: 1020 µM (≈ 512 µg/mL)
- MIC [4]: 1020 µM (≈ 512 µg/mL)
- MIC [5]: 1020 µM (≈ 512 µg/mL)

SMILES: O=C1c2cccc3c(N/N=C/c4ccc[nH]4)ccc(c23)C(=O)N1CCO
- MIC [1]: 92 µM (≈ 32 µg/mL)
- MIC [2]: 46 µM (≈ 16 µg/mL)
- MIC [3]: 367 µM (≈ 128 µg/mL)
- MIC [4]: 367 µM (≈ 128 µg/mL)
- MIC [5]: 183 µM (≈ 63.8 µg/mL)

SMILES: NN1C(=O)c2cccc3c(N/N=C/c4ccc([N+](=O)[O-])o4)ccc(c23)C1=O
- MIC [1]: 5 µM (≈ 1.83 µg/mL)
- MIC [2]: 21 µM (≈ 7.67 µg/mL)
- MIC [3]: 10 µM (≈ 3.65 µg/mL)
- MIC [4]: 5 µM (≈ 1.83 µg/mL)
- MIC [5]: 21 µM (≈ 7.67 µg/mL)

Source: ChEMBL document CHEMBL5506069, “A Unique Hybridization Route to Access Hydrazylnaphthalimidols as Novel Structural Scaffolds of Multitargeting Broad-Spectrum Antifungal Candidates” (J Med Chem, 2024)
